Laboratory results reported in patent publication US5225607A, “Insecticidal ethers” (Imperial Chemical Industries PLC, priority 1985, dated 1993).

Columns and labels:
Format in all cases: in vivo
Tetranychus urticae = assay: Insecticidal/acaricidal test, Tetranychus urticae (spider mites - adult), contact; conditions: 72 h, 500 ppm, French bean leaf, 3 days, read-out: grading of mortality, TU
Procedure: (§1) The activity of the Product was determined using a variety of insect and acarine pests. The Product was used in the form of liquid preparations containing 500, 250 or 100 parts per million (ppm) by weight of the Product. The preparations were made by dissolving the Product in acetone and diluting the solutions with water containing 0.01% by weight of a wetting agent sold under the trade name "LISSAPOL" NX until the liquid preparations contained the required concentratio of the Product. "Lissapol" is a Registered Trade Mark.
(§2) The test procedure adopted with regard to each pest was basically the same and comprised supporting a number of the pests on a medium which was usually a host plant or a foodstuff on which the pests feed, and treating either or both the pests and the medium with the preparations. The mortality of the pests was then assessed at periods usually varying from one to three days after the treatment.
(§3) The results of the tests are given in Table IV for each of the Products, at the rate in parts per million given in the second column as a grading of mortality designated as A, B or C wherein A indicates 80-100% mortality or knockdown (70-100% in the case of Spodoptera exigua), B indicates 50-79% mortality or knockdown (50-69% in the case of Spodoptera exigua) and C indicates less than 50% mortality or knockdown.
(§4) In Table IV the pest organism used is designated by a letter code and the pest species, the support medium or food, and the type and duration of test is given in Table III.

Myzus persicae = assay: Insecticidal test, Myzus persicae (aphids), contact; conditions: 72 h, Chinese Cabbage leaf, 3 days, read-out: grading of mortality, MP
Procedure: as §1, §2, §3, §4

Nilaparvata lugens = assay: Insecticidal test, Nilaparvata lugens (brown planthopper), contact; conditions: 72 h, Cabbage leaf, 3 days, read-out: grading of mortality, NL
Procedure: as §1, §2, §3, §4

Musca domestica [1] = assay: Knockdown test, Musca domestica (houseflies - adults); conditions: cotton wool/sugar, 4 hours, read-out: grading of knockdown, MD/KD
Procedure: as §1, §2
In the case of the species Musca domestica (housefly), additional tests to determine the knockdown effect of the compounds were performed.
as §3, §4

Musca domestica [2] = assay: Insecticidal test, Musca domestica (houseflies - adults), contact; conditions: 24 h, cotton wool/sugar, 1 day, read-out: grading of mortality, MD
Procedure: as §1, §2, §3, §4

Blattella germanica = assay: Insecticidal test, Blattella germanica (cockroach nymphs), residual; conditions: 72 h, plastic pot, 3 days, read-out: grading of mortality, BG
Procedure: as §1, §2, §3, §4

Diabrotica balteata = assay: Insecticidal test, Diabrotica balteata (rootworm larvae), residual; conditions: 72 h, filter paper/maize seed, 3 days, read-out: grading of mortality, DB
Procedure: as §1, §2, §3, §4

Heliothis virescens = assay: whole plant or invertebrate; conditions: in Gossypium hirsutum, 72 h, read-out: grading of mortality, HV
Procedure: as §1, §2, §3, §4

| SMILES | mortality at 500 ppm (Myzus persicae) [%] | mortality at 500 ppm (Nilaparvata lugens) [%] | pest or weed control at 500 ppm (Musca domestica [1]) [%] | mortality at 500 ppm (Musca domestica [2]) [%] | mortality at 500 ppm (Blattella germanica) [%] | mortality at 500 ppm (Diabrotica balteata) [%] | mortality at 250 ppm (Myzus persicae) [%] | mortality at 250 ppm (Nilaparvata lugens) [%] | pest or weed control at 250 ppm (Musca domestica [1]) [%] | mortality at 250 ppm (Musca domestica [2]) [%] | mortality at 250 ppm (Blattella germanica) [%] | mortality at 250 ppm (Heliothis virescens) [%] | mortality at 250 ppm (Diabrotica balteata) [%] | further results |
| --- | --- | --- | --- | --- | --- | --- | --- | --- | --- | --- | --- | --- | --- | --- |
| CCOc1ccc(C(Cl)(COCc2ccc(F)c(Oc3ccc(Br)cc3)c2)C(F)(F)F)cc1 (stereo not shown) [Compound 43, 1,1,1-Trifluoro-2-chloro-2-(4-ethoxyphenyl)-3-(3-(4-bromophenoxy)-4-fluorobenzyloxy)propane] | 80 to 100 | 80 to 100 | 80 to 100 | 80 to 100 | 50 to 79 | < 50 | – | – | – | – | – | – | – | mortality at 500 ppm (Tetranychus urticae): 50 to 79% |
| CCOc1ccc(C(F)(COCc2ccc(F)c(Oc3ccccc3)c2)C(F)(F)F)cc1 (stereo not shown) [Compound 77, 1,1,1,2-Tetrafluoro-2-(4-ethoxyphenyl)-3-(3-phenoxy-4-fluorobenzyloxy)propane] | – | – | – | – | – | – | 80 to 100 | 80 to 100 | 80 to 100 | 80 to 100 | 80 to 100 | 80 to 100 | 80 to 100 | – |
| CCOc1ccc(C(COCc2ccc(F)c(Oc3ccccc3)c2)(OC(C)=O)C(F)(F)F)cc1 (stereo not shown) [Compound 149, 1,1,1-trifluoro-2-acetoxy-2-(4-ethoxyphenyl)-3-(3-phenoxy-4-fluorobenzyloxy)propane] | – | – | – | – | – | – | < 50 | 50 to 79 | < 50 | < 50 | < 50 | 50 to 79 | < 50 | – |
| CCOc1ccc(C(F)(COCc2cccc(Oc3ccccc3)n2)C(F)(F)F)cc1 (stereo not shown) [Compound 76, 1,1,1,2-Tetrafluoro-2-(4-ethoxyphenyl)-3-(6-phenoxy-2-pyridylmethyloxy)propane] | 80 to 100 | 80 to 100 | 80 to 100 | 80 to 100 | 80 to 100 | 80 to 100 | – | – | – | – | – | – | – | mortality at 500 ppm (Heliothis virescens): 80 to 100% |
| CCOc1ccc(C(Cl)(COCc2ccc(F)c(Oc3ccccc3)c2)C(F)(F)F)cc1 (stereo not shown) [Compound 40, 1,1,1-Trifluoro-2-chloro-2-(4-ethoxyphenyl)-3-(3-phenoxy-4-fluorobenzyloxy)propane] | – | – | – | – | – | – | 80 to 100 | 80 to 100 | 80 to 100 | 80 to 100 | 80 to 100 | 80 to 100 | 80 to 100 | – |
| CCOc1ccc(C(F)(COCc2c(F)c(F)c(C)c(F)c2F)C(F)(F)F)cc1 (stereo not shown) [Compound 78, 1,1,1,2-Tetrafluoro-2-(4-ethoxyphenyl)-3-(4-methyl-2,3,5,6-tetrafluorobenzyloxy)propane] | – | – | – | – | – | – | < 50 | 80 to 100 | < 50 | < 50 | 80 to 100 | 80 to 100 | 80 to 100 | – |
| CCOc1ccc(C(O)(COCc2ccc(F)c(Oc3ccc(Br)cc3)c2)C(F)(F)F)cc1 (stereo not shown) [Compound 116, 1,1,1-Trifluoro-2-(4-ethoxyphenyl)-3-(3-(4-bromophenoxy)-4-fluorobenzyloxy)propan-2-ol] | < 50 | < 50 | 50 to 79 | 50 to 79 | < 50 | < 50 | – | – | – | – | – | – | – | mortality at 500 ppm (Tetranychus urticae): 80 to 100% |
| CCOc1ccc(C(O)(COCc2cccc(Oc3ccccc3)n2)C(F)(F)F)cc1 (stereo not shown) [Compound 141, 1,1,1-trifluoro-2-(4-ethoxyphenyl)-3-(6-phenoxy-2-pyridylmethyloxy)propan-2-ol] | < 50 | 50 to 79 | 80 to 100 | 80 to 100 | < 50 | 50 to 79 | – | – | – | – | – | – | – | mortality at 500 ppm (Heliothis virescens): 80 to 100% |
| CCOc1ccc(C(F)(COCc2cccc(Oc3ccccc3)c2)C(F)(F)F)cc1 (stereo not shown) [Compound 75, 1,1,1,2-tetrafluoro-2-(4-ethoxyphenyl)-3-(3-phenoxybenzyloxy)propane] | – | – | – | – | – | – | – | – | – | – | – | – | – | mortality at 100 ppm (Myzus persicae): 50 to 79%; mortality at 100 ppm (Nilaparvata lugens): 80 to 100%; pest or weed control at 100 ppm (Musca domestica [1]): 80 to 100%; mortality at 100 ppm (Musca domestica [2]): 50 to 79%; mortality at 100 ppm (Blattella germanica): < 50%; mortality at 100 ppm (Heliothis virescens): < 50%; mortality at 100 ppm (Diabrotica balteata): 80 to 100% |
| CCOc1ccc(C(Cl)(COCc2c(F)c(F)c(C)c(F)c2F)C(F)(F)F)cc1 (stereo not shown) [Compound 39, 1,1,1-Trifluoro-2-chloro-2-(4-ethoxyphenyl)-3-(4-methyl-2,3,5,6-tetrafluorobenzyloxy)propane] | – | – | – | – | – | – | < 50 | 80 to 100 | < 50 | < 50 | < 50 | < 50 | < 50 | – |
| CCOc1ccc(C(O)(COCc2ccc(F)c(Oc3ccccc3)c2)C(F)(F)F)cc1 (stereo not shown) [Compound 113, 1,1,1-Trifluoro-2-(4-ethoxyphenyl)-3-(4-fluoro-3-phenoxybenzyloxy)propan-2-ol] | – | – | – | – | – | – | < 50 | 50 to 79 | 80 to 100 | 50 to 79 | < 50 | < 50 | 80 to 100 | – |
| OC(COCc1cccc(Oc2ccccc2)c1)(c1ccc(OC(F)(F)F)cc1)C(F)(F)F (stereo not shown) [Compound 139, 1,1,1-trifluoro-2-(4-trifluoromethoxyphenyl)-3-(3-phenoxybenzyloxy)-propan-2-ol] | < 50 | < 50 | 80 to 100 | 80 to 100 | < 50 | 80 to 100 | – | – | – | – | – | – | – | mortality at 500 ppm (Heliothis virescens): 80 to 100% |
| CCOc1ccc(C(O)(COCc2c(F)c(F)c(C)c(F)c2F)C(F)(F)F)cc1 (stereo not shown) [Compound 114, 1,1,1-Trifluoro-2-(4-ethoxyphenyl)-3-(4-methyl-2,3,5,6-tetrafluorobenzyloxy)propan-2-ol] | – | – | – | – | – | – | – | – | – | – | – | – | – | mortality at 100 ppm (Myzus persicae): < 50%; mortality at 100 ppm (Nilaparvata lugens): 50 to 79%; pest or weed control at 100 ppm (Musca domestica [1]): < 50%; mortality at 100 ppm (Musca domestica [2]): < 50%; mortality at 100 ppm (Blattella germanica): < 50%; mortality at 100 ppm (Heliothis virescens): < 50%; mortality at 100 ppm (Diabrotica balteata): < 50% |
| CCOc1ccc(C(COCc2ccc(F)c(Oc3ccccc3)c2)(OC)C(F)(F)F)cc1 (stereo not shown) [Compound 150, 1,1,1-trifluoro-2-methoxy-2-(4-ethoxyphenyl)-3-(3-phenoxy-4-fluorobenzyloxy)propane] | – | – | – | – | – | – | 50 to 79 | < 50 | < 50 | < 50 | < 50 | 80 to 100 | 80 to 100 | – |
| CCOc1ccc(C(COCc2cccc(Oc3ccccc3)n2)C(F)(F)F)cc1 (stereo not shown) [Compound 4, 1,1,1-Trifluoro-2-(4-ethoxyphenyl)-3-(6-phenoxy-2-pyridylmethyloxy)propane] | – | – | – | – | – | – | – | – | – | – | – | – | – | mortality at 100 ppm (Myzus persicae): 80 to 100%; mortality at 100 ppm (Nilaparvata lugens): 80 to 100%; pest or weed control at 100 ppm (Musca domestica [1]): 80 to 100%; mortality at 100 ppm (Musca domestica [2]): 80 to 100%; mortality at 100 ppm (Blattella germanica): 80 to 100%; mortality at 100 ppm (Heliothis virescens): 80 to 100%; mortality at 100 ppm (Diabrotica balteata): 80 to 100% |
| CCOc1ccc(C(Cl)(COCc2cccc(Oc3ccccc3)n2)C(F)(F)F)cc1 (stereo not shown) [Compound 41, 1,1,1-Trifluoro-2-chloro-2-(4-ethoxyphenyl)-3-(6-phenoxy-2-pyridylmethyloxy)propane] | 80 to 100 | 80 to 100 | 80 to 100 | 80 to 100 | < 50 | 80 to 100 | – | – | – | – | – | – | – | mortality at 500 ppm (Heliothis virescens): 80 to 100% |
